Laboratory results reported in publication PMC10484922, “Discovery of a selective and biologically active low-molecular weight antagonist of human interleukin-1β” (Nature Communications, 2023).
Where “and” joins values, the source holds several entries; their conditions need not be identical. Equal entries are not always repeated. Where two headings read alike, the source gives them in different places.

Experiments:
[1] = tested on: HEK-Blue IL-1β cells stimulated with hIL-1α; test: HEK293 reporter gene assay, hIL-1α as trigger; format: cell-based, human; details: for reporter gene assay signal, mean (Figure 3d): inhibitor 3nM
Protocol: We used HEK-Blue™ IL-1β cells that respond specifically to IL-1 (# hkb-il1b, InvivoGen). These cells can detect IL-1α and IL-1β, as these cytokines bind to the same receptor, IL-1R1. They express a Seap reporter gene under the control of the IFN-β minimal promoter fused to five NF-kappaB and five AP-1 binding sites. Thirty microliters (300,000 cells/ml) per well of a 384-well plate were plated overnight. Cells were then stimulated with graded concentrations of cytokines (hIL-1α or hIL-1β) in the absence or presence of canakinumab (Ilaris®, ILARI LYVI 150MG 22GLW.012, batch U003 0409)[22], anakinra (Kineret®, 100 mg/0.67 ml injectable solution, Sobi)[23], or compound (S)-2 (compounds were pre-mixed for 1 h with the cytokine prior to addition to cells) and further incubated overnight before assessment of Seap activity.

IL-1β [2] = molecular target: T1, IL-1β (Homo sapiens, UniProt P01584); test: SPR binding of compounds to immobilized hIL-1β; set-up: Mature hIL-1β was expressed in Escherichia coli; made in house; host or cells: Escherichia coli BL21 (DE3), pET17b
Protocol: All SPR experiments were performed with an SPR-32 instrument (Bruker Daltonics SPR, Hamburg, Germany). SPR chips were from XanTec bioanalytics GmbH (Düsseldorf, Germany).
C-terminally avi-tagged hIL-1β protein was immobilized onto a SAHC200M chip with a neutravidin-coated surface. Immobilization was performed with a protein injection of 0.02 mg/ml IL-1β diluted in PBS pH 7.5 (Gibco 70011-036, 10×), 0.05% Tween-20 for 5 min at 10 μl/min. The running buffer for binding studies of compounds was PBS pH 7.4, 0.05% Tween-20, and 2% DMSO. For the correction of small DMSO variations between samples, injections of 6 solvent samples ranging from 1% to 3% DMSO were run. Compound measurements were performed in MICK mode (multiple injection cycles kinetic) with a dose–response of 10 concentrations. Dissociation constants for compounds (KD) were obtained by determining steady-state fit that followed the 1:1 Langmuir model.
Data analysis was performed with the Sierra Analyzer 3.4.0 software from Bruker. Signal intensities were corrected for nonspecific binding to the surface by subtracting intensities from the reference surface from those of the hIL-1β surfaces (first reference subtraction) and by subtracting the buffer injection (second reference subtraction). KD values were carried out by determining a reporting point close to the end of the injection, used for steady-state fit, in addition to a kinetic fit delivering kon- and koff-values; both fitting models followed the 1:1 Langmuir equation.
Supplementary Figure 3. De termination of binding af fi nit ie s for se l ec ted ana l ogues of 1 by SPR. a - d Gr ap hs of exemplary experimen ts are given , where the sat urat ion of hI L-1b immobil ized on a chip was monitored at various concentrations of compound 3, 12, 10, and 11, respectively. Th e saturati on reached at equ ilibri um (insert) was plo tt ed versus the admini stered concentration and the equ ilibri um bin ding constant was derived from a non-li near lea st square fitting routine. e equ ilibri um and f kinetic bin ding of (S)-2 to IL-1b (kon = 1. 15 x 105 M-1 s-1 and koff = 0. 12 s-1).

IL-1β [3] = molecular target: T1, IL-1β; test: 19F-reporter displacement assay with (S)-1 as probe; format: binding; set-up: Mature hIL-1β was expressed in Escherichia coli; made in house; host or cells: Escherichia coli BL21 (DE3), pET17b
Protocol: Protein and reporter concentrations were 10 and 40 μM, respectively. To account for changes in sample homogeneity, samples contained 1-(2,2,2-trifluoroacetyl)piperidine-4-carboxylic acid as an internal reference for scaling signal intensities. Three concentrations of the competitor were typically measured, and the related displacement of the probe was converted into Ki-values according to Dalvit and Vulpetti[17]. […] This process was automated with FRPipe, an in-house developed Python script (https://github.com/Novartis/FRPipe) that allows for streamlined analysis of such experiments. […] For visual inspection, an overview containing relevant ^19F peaks, fitting curves, and proton spectra was plotted.
Supplementary Figure 2. 13C-NMR and 19F-NMR reporter assays to monitor early structure activity relationships of analogues of 1. a, b Early structure activity relationships monitored by protein-observed and c-f 19F-NMR reporter assays, exemplified for compound 8. a 1H-13C-HMQC spectra of hIL-1b (50 µM) were acquired in the presence (red) and absence (blue) of 500 µM compound and rows were extracted at the w1-frequency of the peak corresponding to Leu60 Cd1H3. b The degree of protein binding was estimated from the ratio I/I0, where I and I0 correspond to the signal in the presence and absence of compound, respectively. c For the assessment of the KI-values, the signal intensity of a reporter molecule (S)-1 was monitored in 19F-transverse relaxation experiments run in the absence and presence of increasing amounts of compound. d All intensities were scaled to the intensity of an internal standard (all signals in panel c and d are shifted on the X-axis for clarity). e KI-values were retrieved from theoretical binding curves calculated for each compound concentration8. f One-dimensional 1H-NMR spectra were recorded for each assay mixture to assess the structural integrity and solubility of the compound in the sample.
(1 picture or pasted object on this page, not shown here)

IL-1β [4] = molecular target: T1, IL-1β; test: TR-FRET IL-1β/hIL-1R1 receptor displacement assay; format: biochemical
Protocol: After 1 h incubation at room temperature, hIL-1R1 (1–332; Alexa 647 labeled; 50 nM final concentration) and anti-His-Europium W1024 (Perkin Elmer; Cat.No. AD0401, 1 nM final concentration) were added to a final volume of 10 μl per well. […] All experiments were run in triplicates.

[5] = source data, read-out: SPR Kd, Mean
[6] = source data, read-out: SPR Kd, individual experiments (Exp1-5)
[7] = steady-state fit, 1:1 Langmuir, read-out: SPR KD
[8] = 19F-reporter Ki, protein 10 μM, reporter (S)-1 40 μM
[9] = 19F-reporter, individual experiments (Exp1-58), source data
[10] = Il1b wt, read-out: TR-FRET IC50, individual experiments
[11] = IL-1beta, 0.01 uM, per experiment
[12] = IL-1beta, 0.02 uM, per experiment
[13] = IL-1beta, 0.1 uM, per experiment
[14] = IL-1beta, 0.2 uM, per experiment
[15] = IL-1beta, 0.6 uM, per experiment
[16] = IL-1beta, 63 uM, per experiment

T1 sequence (P01584 117-269): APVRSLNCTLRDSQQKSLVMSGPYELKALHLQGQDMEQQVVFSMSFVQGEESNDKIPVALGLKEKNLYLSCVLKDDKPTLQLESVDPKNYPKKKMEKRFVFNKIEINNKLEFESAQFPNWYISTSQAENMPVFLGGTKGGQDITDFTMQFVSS

## canakinumab: anti-hIL-1β antibody [reference compound]
[1]; IL-1alpha 3.04596 pg/ml
  reporter gene assay signal, mean (Figure 3d): 0.08
[1]; IL-1alpha 6.09192 pg/ml
  reporter gene assay signal, mean (Figure 3d): 0.12
[1]; IL-1alpha 12.1838 pg/ml
  reporter gene assay signal, mean (Figure 3d): 0.19
[1]; IL-1alpha 24.3677 pg/ml
  reporter gene assay signal, mean (Figure 3d): 0.36
[1]; IL-1alpha 48.7353 pg/ml
  reporter gene assay signal, mean (Figure 3d): 0.66
[1]; IL-1alpha 97.4707 pg/ml
  reporter gene assay signal, mean (Figure 3d): 1.07
[1]; IL-1alpha 194.941 pg/ml
  reporter gene assay signal, mean (Figure 3d): 1.44
[1]; IL-1alpha 389.883 pg/ml
  reporter gene assay signal, mean (Figure 3d): 1.69
[1]; IL-1alpha 779.766 pg/ml
  reporter gene assay signal, mean (Figure 3d): 1.8
[1]; IL-1alpha 1559.53 pg/ml
  reporter gene assay signal, mean (Figure 3d): 1.86
[1]; IL-1alpha 3119.06 pg/ml
  reporter gene assay signal, mean (Figure 3d): 1.88
[1]; IL-1alpha 6238.12 pg/ml
  reporter gene assay signal, mean (Figure 3d): 1.91
[1]; IL-1alpha 12476.2 pg/ml
  reporter gene assay signal, mean (Figure 3d): 1.92
[1]; IL-1alpha 24952.5 pg/ml
  reporter gene assay signal, mean (Figure 3d): 2
[1]; IL-1alpha 49905 pg/ml
  reporter gene assay signal, mean (Figure 3d): 1.98

## Cc1ccc2c(c1)NC(=O)C2(O)c1cc(-c2ccc(C(=O)O)cc2)ccc1O (centres unmarked) [Compound 10]
IL-1β [2]; [5]
  Kd: 43.6 µM
IL-1β [2]; [6]
  Kd: 58 µM and 63 µM and 27 µM and 26 µM
IL-1β [2]; [7]
  Kd: 44 ± 17 µM
IL-1β [3]; [8]
  Ki: 75 ± 40 µM
IL-1β [3]; [9]
  Ki: 103 µM and 47 µM
IL-1β [4]; [10]
  IC50: 200 µM and 134 µM
IL-1β [4]; read-out: TR-FRET IL-1β IC50
  IC50: 178 ± 38 µM

## Cc1ccc2c(c1)NC(=O)[C@@]2(c1cn[nH]c1)c1cc(-c2ccc(C(=O)O)cc2C(=O)O)ccc1O [Compound (S)-2]
IL-1β [2]; kinetic fit
  koff: 0.12 s⁻¹
  kon: 120000 M⁻¹ s⁻¹
IL-1β [2]; [5]
  Kd: 1.1 µM
IL-1β [2]; [6]
  Kd: 1.1 µM (2×) and 1 µM
IL-1β [2]; [7]
  Kd: 1.1 µM
IL-1β [3]; protein 10 μM, reporter (S)-1 40 μM, read-out: 19F-reporter Ki
  Ki: < 10 µM
[1]
  reporter activity with hIL-1α as trigger: ineffective
IL-1β [4]; [11]
  TR-FRET calculated % inhibition: -3% and -1% and 0%
  TR-FRET raw data: 90 and 159 and 163 and 162 and 161
IL-1β [4]; [12]
  TR-FRET calculated % inhibition: -1% and 1% and 0%
  TR-FRET raw data: 89 and 157 and 158 and 161
IL-1β [4]; [13]
  TR-FRET calculated % inhibition: 1% and 3%
  TR-FRET raw data: 87 and 156 and 155 and 157
IL-1β [4]; [14]
  TR-FRET calculated % inhibition: 10% and 7%
  TR-FRET raw data: 78 and 144 and 149 and 146 and 151
IL-1β [4]; IL-1beta, 0.2 uM, per experiment, read-out: TR-FRET calculated % inhibition
  inhibition at 0.2 µM: 13%
IL-1β [4]; [15]
  TR-FRET calculated % inhibition: 20% and 23% and 21%
  TR-FRET raw data: 67 and 130 and 131 and 128
IL-1β [4]; IL-1beta, 0.6 uM, per experiment, read-out: TR-FRET calculated % inhibition
  inhibition at 0.6 µM: 28%
IL-1β [4]; IL-1beta, 2 uM, per experiment
  TR-FRET calculated % inhibition: 40% and 39%
IL-1β [4]; IL-1beta, 2 uM, per experiment, read-out: TR-FRET calculated % inhibition
  inhibition at 2 µM: 55%
IL-1β [4]; IL-1beta, 6 uM, per experiment
  TR-FRET calculated % inhibition: 61% and 62% and 60%
IL-1β [4]; IL-1beta, 6 uM, per experiment, read-out: TR-FRET calculated % inhibition
  inhibition at 6 µM: 72%
IL-1β [4]; IL-1beta, 20 uM, per experiment
  TR-FRET calculated % inhibition: 80% and 78% and 79%
IL-1β [4]; IL-1beta, 20 uM, per experiment, read-out: TR-FRET calculated % inhibition
  inhibition at 20 µM: 88%
IL-1β [4]; [16]
  TR-FRET calculated % inhibition: 92%
  TR-FRET raw data: 16 and 27 and 29 and 28
IL-1β [4]; IL-1beta, 63 uM, per experiment, read-out: TR-FRET calculated % inhibition
  inhibition at 63 µM: 95%
IL-1β [4]; IL-1beta, 200 uM, per experiment
  TR-FRET raw data: 12 and 16 and 17
IL-1β [4]; IL-1beta, 200 uM, per experiment, read-out: TR-FRET calculated % inhibition
  inhibition at 200 µM: 100%
IL-1β [4]; [10]
  IC50: 2.1 µM and 4.2 µM and 4.6 µM and 4.4 µM and 4.7 µM
IL-1β [4]; read-out: TR-FRET IL-1β IC50
  IC50: 4 ± 1.1 µM

## O=C(O)c1ccccc1-c1ccc(O)c(C2(O)C(=O)Nc3cc(Cl)ccc32)c1 (centres unmarked) [Compound 11]
IL-1β [2]; [5]
  Kd: 31.8 µM
IL-1β [2]; [6]
  Kd: 34 µM and 37 µM and 36 µM and 26.3 µM and 25.7 µM
IL-1β [2]; [7]
  Kd: 32 ± 5 µM
IL-1β [3]; [8]
  Ki: 63 ± 41 µM
IL-1β [3]; [9]
  Ki: 92 µM and 34 µM
IL-1β [4]; [10]
  IC50: 140 µM and 130 µM and 138 µM and 97.9 µM and 136 µM and 106 µM and 133 µM
IL-1β [4]; read-out: TR-FRET IL-1β IC50
  IC50: 126 ± 17 µM
IL-1β [4]; summary, read-out: TR-FRET IL-1beta IC50, AVRG
  IC50: 126 µM
